Assay results from PMC12535076, “Neurotherapeutic effects of Vutiglabridin as a Paraoxonase-2 modulator in preclinical models of Parkinson’s disease” (Molecular Neurodegeneration, 2025).

Key:
[1] = tested on: SH-SY5Y human neuroblastoma cells; test: Cell-based mitochondrial activity assays in MPP+-treated SH-SY5Y cells
Protocol: Human SH-SY5Y neuroblastoma cells (ATCC® (CRL-2266™; Manassas, VA, USA) were first cultured in Dulbecco’s Modified Eagle Medium (DMEM)/F12 supplemented with 10% fetal bovine serum (FBS), 100 U/mL penicillin, and 100 µg/mL streptomycin (complete media, CM) at 37 °C with 5% CO2. Cells (5 × 10^4 cells/well) then were cultured in 96-well plates for 24 h followed by incubation in serum-deficient media (SDM, culture media containing 0.5% FBS) for 16 h. […] The treated cells were harvested according to the purpose and analyzed.
A systemic cell-based mitochondrial function analysis system was established using SH-SY5Y cells in 96-well plates based on fluorescence detection methods as described previously. The assay system covers quantitative assays for methyl thiazyl tetrazolium-mitochondrial dehydrogenase activity (MTT), TMRE-based mitochondrial membrane potential (TMRE), ATP contents, and ROS of cells. Cells in black 96-well culture plate were incubated with 200 nM TMRE and 0.5 µM Hoechst 33,342 for 30 min at 37 °C in phenol red-free SDM, or with 1 µM CM-H2DCFDA or 5 µM MitoSOX and 0.5 µM Hoechst 33,342 for 1 h at 37 °C. Fluorescence intensities at 550 nm/580 nm for TMRE, at 510 nm/580 nm MitoSOX, or at 494 nm/522 nm for DCF-DA were normalized by Hoechst intensity at 355 nm/480 nm (Spectramax Gemini EM, Molecular Devices, Sunnyvale, CA, USA).
Endogenous OCR was measured in adherent SH-SY5Y cells using a Seahorse XF-24 Analyzer (Seahorse Bioscience, Billerica, MA, USA) following the manufacturer’s protocol with minor modifications. Briefly, OCR assays were performed using SH-SY5Y cells (5.0 × 10^3 cells/well) equilibrated in DMEM without sodium bicarbonate in XF-24 microplates. After measuring basal OCR for 3 min, oligomycin (1 µg/mL), carbonyl cyanide-p-trifluoromethoxyphenylhydrazone (FCCP) (0.3 µM), and rotenone (0.1 µM) were consecutively added into each well to reach their final working concentrations. The OCR was calculated from 3-min measurement cycles and normalized to cell number.

[2] = tested on: PON2-KD and wild-type C57BL/6 mice; test: MPTP model in wild-type and PON2-knockdown mice; assay type: in vivo, mouse
Protocol: Animals were allowed at least 1 week of acclimatization before being subjected to the study and were housed in a regulated environment with a 12-h/12-h light/dark cycle. Food and water were provided ad libitum. The animal experiment was carried out in accordance with the National Institutes of Health Guide for the Care and Use of Laboratory Animals (NIH Publications No. 80–23; revised 1996). All procedures for handling mice were carried out in accordance with “Principles of Laboratory Animal Care” and the Animal Care and Use guidelines of Kyung Hee University, Seoul, Korea (KHSASP-20-163).
MPTP was dissolved in distilled water and injected intraperitoneally for five days from day 10 of the 21-day experiment period. Vuti or rasagiline was administered via oral gavage for 21 days. Vehicles for both Vuti and MPTP (distilled water) were administered to all mice. Mice were randomly divided for all studies. For the first set of studies shown in Fig. 3, each group consisted of 5 animals.
To determine forelimb and hindlimb motor coordination and balance, we performed the rotarod test as described previously. Also, the pole test was performed to measure bradykinesia. […] On day 20, the time spent on the rotating bar at 20 rpm, which was defined as the latent period, was recorded. Performance was recorded as 300 s if the latent period exceeded 300 s. […] The time to land down and place four fee on the floor was recorded as the time for locomotion activity (T-LA). […]
Free-floating brain sections were processed with the avidin-biotin peroxidase complex (ABC) complex (Vector Laboratories, Burlingame, CA, USA) method. […] The immunoperoxidase signals of TH was detected by incubating sections with 0.5 mg/ml 3,3′-diaminobenzidine (Sigma, St. Louis, MO, USA) in 0.1 M PB containing 0.003% H2O2. […] TH-positivity in the ST was measured by the optical density of TH-positive fibers at x40 magnification using ImageJ software (National Institutes of Health, Bethesda, MD, USA). […] (5 sections/series) were counted at x100 magnification as previously described. […]

## CCOc1ccc(C2COc3c(ccc4c3CCC(C)(C)O4)C2)c(O)c1 (stereo not shown) [Vuti, Vutiglabridin]
[1]; 1 mM MPP+ 20 h, then Vuti 1~100 nM 24 h, Seahorse XF-24
  MPP+-induced reduction in OCR (basal respiration, ATP turnover rate, maximum respiratory capacity): dose-dependently and significantly rescued
[1]; 1 mM MPP+ 24 h, then Vuti 0~1 µM 24 h
  MPP+-induced mitochondrial damage (NADH dehydrogenase complex 1 activity, ATP content, DCF-DA ROS, MitoSOX superoxide): significantly reversed
[1]; 1 mM MPP+, post-treatment with Vuti
  ATP production rates through glycolysis (GlycoATP) and mitochondria (mitoATP): normalized
[1]; SH-SY5Y, 1 mM MPP+
  concentration at which significant restoration of MPP+-induced damage was observed: 1 nM
[2]; PON2-KD mice, MPTP, Vuti 50 mg/kg oral for three weeks
  neuroprotective effects in PON2-KD mice: absent
[2]; non-MPTP-injected wild-type mice, 50 mg/kg Vuti, vs vehicle-only
  motor behavior, dopaminergic neuronal cell count and fiber density without MPTP: no changes
[2]; wild-type mice, MPTP, Vuti 50 mg/kg for three weeks
  MPTP-induced damage to motor behaviors and dopaminergic neurons in wild-type mice: significantly attenuated
